In US11026932B2, “Medicinal composition for preventing or treating inflammatory respiratory disease” (NATIONAL UNIVERSITY CORPORATION OKAYAMA UNIVERSITY, priority 2015, dated 2021):

Assays:
[1] = compared to a known RXR full agonist; cited from earlier work
[2] = test system: bronchial asthma model mice; assay: Bronchial asthma model mice (OVA sensitization and inhaled OVA exposure), evaluation of drug efficacy; type: in vivo, female BALB/c mice; conditions: compared with the untreated group
Protocol: <Preparation of Bronchial Asthma Mice and Evaluation of Drug Efficacy>
Bronchial asthma mice were prepared and used for evaluation of drug efficacy in accordance with the following procedures.
Female BALB/c mice were systemically sensitized by intraperitoneal administration of ovalbumin (OVA) ([…] of OVA emulsified in 2.25 mg aluminum hydroxide in a total volume of 100 μL) on Day 0 and Day 14, and then was exposed to inhaled OVA by an ultrasonic nebulizer (for 20 min, 3 days: Days 28 to 30), to induce asthma reaction.
From Day 25, the mice were fed with a food containing an RXR agonist (NEt-4IB). On Day 32, the mice underwent tracheotomy under anesthesia by pentobarbital administration, followed by insertion of an endotracheal tube. After the tube was connected to a respiratory function measuring equipment, an airway hyperreactivity (airway resistance) was determined for evaluating airway constriction.
Forty eight hours after the last OVA inhalation exposure, airway hyperreactivity in the mice with an endotracheal tube was measured using a respiratory function measuring equipment (Flexivent, SIREQ Inc.). Here, airway hyperreactivity was induced by inhalation of methacholine.
After the procedure 2, the mice were euthanized by exsanguination. After bronchoalveolar lavage, a lung tissue was removed for evaluating an airway tissue.
Also, for a group fed with a common food as an untreated group, an asthma reaction was induced in the same way for determination of airway hyperreactivity and evaluation of airway inflammation.
Two groups which were not sensitized by an OVA and only exposed to inhaled OVA as non-asthma control groups (an RXR agonist medicated feed group and a common feed group) were also evaluated for airway hyperreactivity and airway inflammation in the same way.
The data obtained was analyzed by Anova significance test, in which p<0.01 and p<0.05 to an untreated non-asthma group were indicated by “**” and “*”, respectively. Furthermore, P<0.05 to an untreated asthma group was indicated by “#”.

emphysema model mice = assay: Emphysema model mice (intratracheal swine pancreatic elastase), evaluation of drug efficacy; type: in vivo, female BALB/c mice
Protocol: <Preparation of Emphysema Mice and Evaluation of Drug Efficacy>
Emphysema mice were prepared in accordance with the following procedures described and used for evaluation of drug efficacy.
Under anesthesia by pentobarbital or isoflurane administration, female BALB/c mice were intratracheally administered with swine pancreatic elastase to prepare (day 0) emphysema models.
Control mice were fed with a food containing bexarotene as an existing RXR full agonist.
On Days 4 and 14, the mice underwent tracheotomy again under anesthesia by pentobarbital or xylazine-ketamine administration, followed by insertion of an endotracheal tube, and static lung compliance was measured using a respiratory function measuring equipment ([…], SIREQ Inc.) for evaluating emphysematous alteration. Static lung compliance is an indication of extensibility of a lung tissue, and static lung compliance is increased in emphysema which is a disease associated with tissue destruction in an alveolar region.
After the procedure 3, the mice were euthanized by exsanguination. After bronchoalveolar lavage, a lung tissue was removed for evaluating emphysema.
The data obtained was analyzed by Anova significance test, in which p<0.05 to an untreated non-emphysema group was indicated by “*”. Furthermore, P<0.05 to an untreated emphysema group was indicated by “#”.

[3] = emphysema model mice, 4 days after elastase administration, compared with drug non-administration group

Row | Compound | increase in triglyceride [1] | IL-5 in supernatant of bronchoalveolar lavage fluid ([2]; ELISA) | IL-13 in supernatant of bronchoalveolar lavage fluid ([2]; ELISA) | inflammatory cell infiltration in a local site of the airway, histopathological investigation of the lung tissue ([2]; HE staining) | eosinophil number in cell fraction of bronchoalveolar lavage fluid [2] | lymphocyte number in cell fraction of bronchoalveolar lavage fluid [2] | total cell number in cell fraction of bronchoalveolar lavage fluid [2] | static lung compliance (emphysema model mice; emphysema model mice fed food containing compound from Day -4, measured Days 4 and 14, compared with the untreated group) | macrophages in cell fraction of bronchoalveolar lavage fluid (emphysema model mice; [3]) | total cell number in cell fraction of bronchoalveolar lavage fluid (emphysema model mice; [3]) | neutrophil number in cell fraction of bronchoalveolar lavage fluid (emphysema model mice; emphysema model mice, 4 days after elastase administration, compared with the untreated group) | effect on bronchoalveolar lavage cell numbers compared with the RXR full agonist bexarotene (emphysema model mice; emphysema model mice, 4 days after elastase administration, total cell number and macrophages) | average interalveolar distance in lung tissue (emphysematous alteration) (emphysema model mice; emphysema model mice, formalin-fixed, HE-stained lung tissue, compared with the untreated group) | anti-inflammatory effect (emphysema model mice; emphysema model or bronchial asthma model, repeated oral administration (summary statement))
1 | CCN(c1ccc(C(C)C)c(OCC(C)C)c1)c1ccc(C(=O)O)cn1 [NEt-3IB] | reduces increase in triglyceride | – | – | – | – | – | – | – | – | – | – | – | – | –
2 | CCN(c1ccc(OCC(C)C)c(C(C)C)c1)c1ccc(C(=O)O)cn1 [NEt-4IB] | – | inhibition | inhibition | improvement in inflammatory cell infiltration | reduction | reduction | reduction | significant improvement | significantly reduced | significantly reduced | reduction | remarkably higher | improvement in emphysematous alteration | significant anti-inflammatory effect
